According to patent publication US8871751B2, “Compositions and methods relating to nuclear hormone and steroid hormone receptors including inhibitors of estrogen receptor alpha-mediated gene expression and inhibition of breast cancer” (The Board of Trustees of the University of Illinois, priority 2008, dated 2014):
pIC50: −log10 of the molar value. “Also recorded” adds a separate entry of the source. One block for each compound: values may come before it.

Tests used:
[1] = system: ERα negative MDA-MB-231 cells; assay: MDA-MB-231 cell growth / toxicity assay (MTS); format: cell-based, human; settings: for effect on growth of MDA-MB-231 cells (toxicity): up to 30 μM, Example 1 assays (1 day / 5 days); for effect on growth of ER negative MDA-MB-231 cells: all concentrations
Protocol: ERα negative MDA-MB-231 human breast cancer cells were used to test for generalized toxicity of the test compounds. To parallel the reporter gene assays in stably transfected T47D breast cancer cells, 5,000 MDA-MB-231 cells per well were plated in a 96 well plate. The cells were maintained in the medium described above for the T47D cells. One day after plating, the same concentration of test compound used in the reporter gene assay (up to 30 μM) was added. After 24 h the MTS assay was carried out as described above. A more stringent toxicity assay parallels the assay for inhibition of estrogen-dependent growth of BG-1 cells. 250 MDA-MB-231 cells were plated per well and maintained and assayed as described for the BG-1 cells. Several compounds without detectable toxicity in the 24-h assay inhibited MDA-MB-231 cell growth in the 5-6 day assay.
Assays for Cell Growth and Viability. Cells were maintained in the media listed above containing CD-treated serum for at least 4 days prior to the experiment. To minimize cell aggregation, MCF-7 cells were harvested in 10 mM Hepes, pH 7.4, 1 mM EDTA. Other cell lines were harvested in trypsin-EDTA. 1,000 cells were plated into each well of a 96 well plate. For slow growing ZR-75 cells, 2,000 cells were plated/well. The cells were maintained in medium containing CD-treated serum for 24 hours. At 24 hours the medium was changed and E2 and DMSO vehicle or TPSF in DMSO was added. The medium was replaced after 2 days (except for BT474 cells whose medium was not changed). After 4 days viable cells were determined using a cell viability test, Promega CellTiter 96 Aqueous One Solution Cell Proliferation Assay (MTS) (Promega, Wis.).

[2] = molecular target: T1, human PR-B binding to flPRE (Homo sapiens, UniProt P06401); assay: FAMA: inhibition of PR binding to flcPRE; settings: binding to HRE, 5 concentrations 0.5-10 μM, sequential method
T1 construct: FLAG; made in house
T1 sequence (P06401 1-933): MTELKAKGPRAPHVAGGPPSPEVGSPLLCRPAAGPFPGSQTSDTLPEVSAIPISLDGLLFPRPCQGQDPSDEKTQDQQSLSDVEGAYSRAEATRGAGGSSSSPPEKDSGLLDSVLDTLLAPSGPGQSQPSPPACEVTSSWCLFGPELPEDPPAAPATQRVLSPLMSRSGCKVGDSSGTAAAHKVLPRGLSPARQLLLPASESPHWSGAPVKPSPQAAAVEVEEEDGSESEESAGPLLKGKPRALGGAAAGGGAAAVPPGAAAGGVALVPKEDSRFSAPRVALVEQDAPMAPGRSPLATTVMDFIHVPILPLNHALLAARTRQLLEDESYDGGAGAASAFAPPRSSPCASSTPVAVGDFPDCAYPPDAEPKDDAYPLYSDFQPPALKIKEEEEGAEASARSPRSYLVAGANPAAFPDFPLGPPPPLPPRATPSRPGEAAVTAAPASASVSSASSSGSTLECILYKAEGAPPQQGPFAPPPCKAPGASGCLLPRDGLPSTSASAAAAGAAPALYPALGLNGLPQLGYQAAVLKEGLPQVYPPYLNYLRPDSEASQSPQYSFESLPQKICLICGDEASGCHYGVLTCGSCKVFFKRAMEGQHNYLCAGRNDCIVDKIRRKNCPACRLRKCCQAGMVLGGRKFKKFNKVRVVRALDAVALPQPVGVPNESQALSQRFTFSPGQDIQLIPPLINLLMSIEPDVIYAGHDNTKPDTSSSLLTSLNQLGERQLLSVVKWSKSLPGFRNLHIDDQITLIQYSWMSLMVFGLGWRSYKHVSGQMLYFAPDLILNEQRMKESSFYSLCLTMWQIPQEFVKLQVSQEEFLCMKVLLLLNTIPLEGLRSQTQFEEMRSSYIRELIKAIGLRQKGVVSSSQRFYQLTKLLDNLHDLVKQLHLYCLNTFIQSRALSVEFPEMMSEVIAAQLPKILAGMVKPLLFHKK
Protocol: Dose response curves for selected compounds were carried out as described for the HTS screen except that each well contained the indicated concentration of test compound. PR assays were carried out in the same buffer used for ERα assays and contained 1 nM flcPRE and 11 nM PR-B and 100 nM progesterone. The buffer used for AR was similar but also contained 5 μM ZnCl, 5 mM NaF, 0.6 μM CHAPS and 100 nM dihydrotestosterone. AR assays contained 1 nM flcARE and 50 nM full-length wild-type AR.
Specificity was evaluated in dose-response studies by quantitative FAMA using purified full-length human PR binding to a fluorescein-labeled progesterone/glucocorticoid response element (flPRE) and full-length human androgen receptor (AR) binding to a fluorescein-labeled androgen response element (flARE).

pIC50 [2]: 5.12
Compound: CN1CCC(C#N)c2ccccc21 (centres unmarked) [Compound 1529]
reduction of growth of MDA-MB-231 cells ([1]; 30 μM, 5 days): 50-60% | effect on growth of MDA-MB-231 cells ([1]; 1-20 μM, 5 days): unaffected

pIC50 [2]: 5.02
Compound: Cn1c(=O)c2nc(CSCc3ccccc3)[nH]c2n(C)c1=O [Compound 95910, 8-Benzylsulfanylmethyl-1,3-dimethyl-3,7-dihydro-purine-2,6-dione]
effect on growth of MDA-MB-231 cells (toxicity) [1]: No toxicity | effect on growth of MDA-MB-231 cells (toxicity) ([1]; listed as TPBM): had no effect; also recorded: no inhibition

pIC50 [2]: 5.13
Compound: CN(C)CCCn1c2c3ccccc3ccc2c2oc(=O)c3ccccc3c21 [Compound 638432]

Compound: Cn1c(=S)c2[nH]c(SCCCC(=O)c3ccc(F)cc3)nc2n(C)c1=O [TPSF, Butyrophenone, p-fluoro-4-(1,2,3,6,-tetrahydro-1,3-dimethyl-2-oxo-6-thionopurin-8-ylthio)]
pIC50 ([1]; Homo sapiens, MDA-MB-231, 96 h, 4 days, MTS, read-out: IC50 for inhibition of MDA-MB-231 (ER Neg. cells) cell growth): < 4.52 | inhibition of growth of MDA-MB-231 cells ([1]; all concentrations tested, including 30 μM, 4 days): 0% | effect on growth of ER negative MDA-MB-231 cells ([1]; including 30 μM, 4 days): did not inhibit growth; also recorded: lacks toxicity | effect on growth of ER negative MDA-MB-231 cells ([1]; including 30 μM, 4 days, listed as 97998/TPSF): did not inhibit growth; also recorded: does not inhibit growth
